Literature values, collected in PMC4891020, “Preclinical evaluation of a nanoformulated antihelminthic, niclosamide, in ovarian cancer” (Oncotarget, 2016).
Converted amounts (≈) assume the structure as drawn.

Key:
[1] = parameters: method as in earlier work

water solubility [1]: 0.23 µg/mL (≈ 0.703 µM) | systemic bioavailability when administered orally: ~10%
Structure (SMILES): O=C(Nc1ccc([N+](=O)[O-])cc1Cl)c1cc(Cl)ccc1O [Niclosamide, niclosamide]
